Consider 35 compounds from patent US20180273538A1, “PYRROLO[2,3-d]PYRIMIDINE DERIVATIVES, A PROCESS FOR THEIR PREPARATION AND PHARMACEUTICAL COMPOSITIONS CONTAINING THEM” (LES LABORATOIRES SERVIER, priority 2015, published 2018).

For test [1], the target named is T1, His-TEV-DYRK1A Kinase domain (aa127-485) (Homo sapiens, UniProt Q13627).
T1 construct: His-TEV-DYRK1A Kinase domain (aa127-485); His (N); TEV cleavage site (N)
Kind of test: Kinase ADP assay (ADP Hunter Plus). The test is classed as biochemical.

A further test addresses T2, DYRK1A (Homo sapiens, UniProt Q13627).
T2 construct: full-length human kinases from Carna Biosciences; purchased Carna Biosciences 04-130
Nature of the test: Kinase TR-FRET assay, DYRK1A. The class given is biochemical. A general note: TR-FRET usually uses a lanthanide donor and a delayed reading to cut background.

The target in a further test is T3, phospho-Ser520-DYRK1A (Homo sapiens, UniProt Q13627).
T3 construct: full-length, wild-type human DYRK1A (NM_001396) with an HA tag; expressed in transfected cells; host or cells: human U2-OS osteosarcoma cells, pcDNA3.1 plasmid
Nature of the test: Cellular DYRK1A autophosphorylation assay in U2-OS cells. The class given is cell-based. The following applies: 5 hours exposure, read-out: IC50 (μM) P-Ser520-Dyrk1A-Cell assay.

One may read the IC50 as the concentration needed to halve the response being measured. As to `Cc1nc(OC(C)c2ccccc2)c2c(-c3ccnc(N)c3)c[nH]c2n1` (stereo not shown) [Example 20, 4-[2-methyl-4-(1-phenylethoxy)-7H-pyrrolo[2,3-d]pyrimidin-5-yl]pyridin-2-amine], the IC50 was determined as 0.013 µM in test [1] and 0.0197 µM on DYRK1A.

As to `Cc1nc(NC(C)c2ccccn2)c2c(-c3ccnc(N)c3)c[nH]c2n1` (stereo not shown) [Example 66, 5-(2-aminopyridin-4-yl)-2-methyl-N-[1-(pyridin-2-yl)ethyl]-7H-pyrrolo[2,3-d]pyrimidin-4-amine], the IC50 is 0.045 µM in test [1] and 0.0107 µM against DYRK1A.

Turning to `Cc1nc(NCc2ccc3cc[nH]c3c2)c2c(-c3ccnc(N)c3)c[nH]c2n1` [Example 72, 5-(2-aminopyridin-4-yl)-N-(1H-indol-6-ylmethyl)-2-methyl-7H-pyrrolo[2,3-d]pyrimidin-4-amine], the IC50 in test [1] amounted to 0.013 µM; at DYRK1A, 0.021 µM.

Turning to `Cc1nc(NCc2cc(F)cc(F)c2F)c2c(-c3ccnc(N)c3)c[nH]c2n1` [Example 73, 5-(2-aminopyridin-4-yl)-2-methyl-N-(2,3,5-trifluorobenzyl)-7H-pyrrolo[2,3-d]pyrimidin-4-amine], the values for the IC50 (in test [1]; against DYRK1A) were 0.038 µM and 0.0059 µM, respectively.

As for `Cc1nc(NCc2ccc(F)cc2C(F)(F)F)c2c(-c3ccnc(N)c3)c[nH]c2n1` [Example 75, 5-(2-ammopyridin-4-yl)-N-[4-fluoro-2-(trifluoromethyl)benzyl]-2-methyl-7H-pyrrolo[2,3-d]pyrimidin-4-amine], the IC50 was found to be 0.037 µM in test [1] and 0.0143 µM at DYRK1A.

In the case of `Cc1nc(NCc2ccccc2OC(F)(F)F)c2c(-c3ccnc(N)c3)c[nH]c2n1` [Example 89, 5-(2-aminopyridin-4-yl)-2-methyl-N-[2-(trifluoromethoxy)benzyl]-7H-pyrrolo[2,3-d]pyrimidin-4-amine], the IC50 stood at 0.077 µM in test [1] and 0.0492 µM against DYRK1A.

Take `Cc1nc(NCc2cccc3c2OCO3)c2c(-c3ccnc(N)c3)c[nH]c2n1` [Example 127, 5-(2-aminopyridin-4-yl)-N-(1,3-benzodioxol-4-ylmethyl)-2-methyl-7H-pyrrolo[2,3-d]pyrimidin-4-amine]: the IC50 turned out to be 0.011 µM in test [1] and 0.0169 µM on phospho-Ser520-DYRK1A.

In the case of `Cc1nc(NCc2cccc3c2OCO3)c2c(-c3cc(N)nc(N)c3)c[nH]c2n1` [Example 128, 4-{4-[(1,3-benzodioxol-4-ylmethyl)amino]-2-methyl-7H-pyrrolo[2,3-d]pyrimidin-5-yl}pyridine-2,6-diamine], the IC50 in test [1] was 0.009 µM; on phospho-Ser520-DYRK1A, 0.0093 µM.

With `Cc1nc(Nc2ccc3c(c2)OCO3)c2c(-c3ccnc(N)c3)c[nH]c2n1` [Example 132, 5-(2-aminopyridin-4-yl)-N-(1,3-benzodioxol-5-yl)-2-methyl-7H-pyrrolo[2,3-d]pyrimidin-4-amine], the results for the IC50 (in test [1]; on DYRK1A) were 0.122 µM and 0.0338 µM, respectively.

For the compound `COc1cccc(C(F)(F)F)c1CNc1nc(C)nc2[nH]cc(-c3ccncc3)c12` [Example 145, N-[2-methoxy-6-(trifluoromethyl)benzyl]-2-methyl-5-(pyridin-4-yl)-7H-pyrrolo[2,3-d]pyrimidin-4-amine], the IC50 in test [1] stood at 0.042 µM; at phospho-Ser520-DYRK1A, 0.471 µM.

In the case of `Nc1cc(-c2c[nH]c3nc(C#CC4CC4)nc(NCc4c(F)cccc4F)c23)ccn1` [Example 152, 5-(2-aminopyridin-4-yl)-2-(cyclopropylethynyl)-N-(2,6-difluorobenzyl)-7H-pyrrolo[2,3-d]pyrimidin-4-amine], the values for the IC50 (in test [1]; at phospho-Ser520-DYRK1A) were 0.012 µM and 0.0101 µM, respectively.

`Nc1cc(-c2c[nH]c3nc(C#CC4CC4)nc(-c4ccc5c(c4)OCO5)c23)ccn1` [Example 153, 4-[4-(1,3-benzodioxol-5-yl)-2-(cyclopropylethynyl)-7H-pyrrolo[2,3-d]pyrimidin-5-yl]pyridin-2-amine]: the results for the IC50 (in test [1]; on phospho-Ser520-DYRK1A) were 0.011 µM and 0.0146 µM, respectively.

As to `Nc1cc(-c2c[nH]c3nc(C#CC4CC4)nc(-c4ccc5c(c4)OCO5)c23)cc(N)n1` [Example 154, 4-[4-(1,3-benzodioxol-5-yl)-2-(cyclopropylethynyl)-7H-pyrrolo[2,3-d]pyrimidin-5-yl]pyridine-2,6-diamine], the IC50 in test [1] came to 0.013 µM; on phospho-Ser520-DYRK1A it was 0.053 µM.

Turning to `N#Cc1nc(-c2ccc3c(c2)OCO3)c2c(-c3cc(N)nc(N)c3)c[nH]c2n1` [Example 158, 4-(1,3-benzodioxol-5-yl)-5-(2,6-diaminopyridin-4-yl)-7H-pyrrolo[2,3-d]pyrimidine-2-carbonitrile], the values for the IC50 (in test [1]; on DYRK1A) were 0.15 µM and 0.0655 µM, respectively.

Take `Cc1nc(/C=C/c2ccccc2)c2c(-c3ccnc(N)c3)c[nH]c2n1` [Example 159]: the IC50 in test [1] was found to be 0.012 µM; on phospho-Ser520-DYRK1A, 0.0187 µM.

As for `Cc1nc(-c2ccc3c(c2)OC(F)(F)O3)c2c(-c3ccnc(N)c3)c[nH]c2n1` [Example 164, 4-[4-(2,2-difluoro-1,3-benzodioxol-5-yl)-2-methyl-7H-pyrrolo[2,3-d]pyrimidin-5-yl]pyridin-2-amine], the IC50 in test [1] stood at 0.015 µM; at phospho-Ser520-DYRK1A it was 0.0883 µM.

`Cc1nc(-c2cccc(OC(F)(F)F)c2)c2c(-c3ccnc(N)c3)c[nH]c2n1` [Example 181]: the IC50 in test [1] was found to be 0.019 µM; on phospho-Ser520-DYRK1A it was 0.15 µM.

With `Cc1nc(-c2cc3ccccc3s2)c2c(-c3ccnc(N)c3)c[nH]c2n1` [Example 182], the IC50 in test [1] was determined as 0.013 µM; at phospho-Ser520-DYRK1A, 0.0142 µM.

In the case of `Cc1nc(-c2cc3ccccc3o2)c2c(-c3ccnc(N)c3)c[nH]c2n1` [Example 183], the IC50 in test [1] amounted to 0.006 µM; at phospho-Ser520-DYRK1A, 0.029 µM.

Consider `Cc1ccc2sc(-c3nc(C)nc4[nH]cc(-c5ccnc(N)c5)c34)cc2c1` [Example 184], for which the IC50 came to 0.012 µM in test [1] and 0.0319 µM on phospho-Ser520-DYRK1A.

Consider `Cc1nc(-c2cc(F)c3c(c2)OCO3)c2c(-c3ccnc(N)c3)c[nH]c2n1` [Example 191], for which the IC50 came out at 0.006 µM in test [1] and 0.0443 µM at phospho-Ser520-DYRK1A.

With `Cc1nc(-c2ccc3c(c2)OCO3)c2c(-c3cc(N)nc(N)c3)c[nH]c2n1` [Example 192], the IC50 in test [1] stood at 0.008 µM; at phospho-Ser520-DYRK1A, 0.048 µM.

Turning to `Cc1nc(C#Cc2ccccc2F)c2c(-c3ccnc(N)c3)c[nH]c2n1` [Example 194], the IC50 was 0.007 µM in test [1] and 0.017 µM on phospho-Ser520-DYRK1A.

`Cc1nc(-c2ccc3c(c2)CCCC3)c2c(-c3ccnc(N)c3)c[nH]c2n1` [Example 195]: the IC50 in test [1] worked out at 0.008 µM; at phospho-Ser520-DYRK1A it was 0.0071 µM.

Consider `Cc1nc(C#CC2CC2)c2c(-c3cc(N)nc(N)c3)c[nH]c2n1` [Example 196], for which the values for the IC50 (in test [1]; at phospho-Ser520-DYRK1A) were 0.023 µM and 0.172 µM, respectively.

For the compound `Cc1nc(C#CC2CC2)c2c(-c3ccnc(N)c3)c[nH]c2n1` [Example 198, 4-[4-(cyclopropylethynyl)-2-methyl-7H-pyrrolo[2,3-d]pyrimidin-5-yl]pyridin-2-amine], the IC50 was determined as 0.017 µM in test [1] and 0.119 µM on phospho-Ser520-DYRK1A.

With `Cc1nc(NCc2cccc3c2OCO3)c2c(-c3ccnc(N)n3)c[nH]c2n1` [Example 208, 5-(2-aminopyrimidin-4-yl)-N-(1,3-benzodioxol-4-ylmethyl)-2-methyl-7H-pyrrolo[2,3-d]pyrimidin-4-amine], the figures for the IC50 (in test [1]; on phospho-Ser520-DYRK1A) were 0.01 µM and 0.0041 µM, respectively.

As to `Cc1nc(-c2ccc3c(c2)OCO3)c2c(-c3ccnc(N)n3)c[nH]c2n1` [Example 209, 4-[4-(1,3-benzodioxol-5-yl)-2-methyl-7H-pyrrolo[2,3-d]pyrimidin-5-yl]pyrimidin-2-amine], the IC50 in test [1] was 0.032 µM; on phospho-Ser520-DYRK1A it was 0.157 µM.

Turning to `Nc1cc(-c2c[nH]c3nc(C#CC4CC4)cc(-c4ccc5c(c4)OCCO5)c23)ccn1` [Example 215, 4-[6-(cyclopropylethynyl)-4-(2,3-dihydro-1,4-benzodioxin-6-yl)-1H-pyrrolo[2,3-b]pyridin-3-yl]pyridin-2-amine], the IC50 in test [1] is 0.019 µM; at phospho-Ser520-DYRK1A, 0.103 µM.

`Nc1cc(-c2c[nH]c3nc(C#CC4CC4)cc(-c4ccc5c(c4)OCO5)c23)cc(N)n1` [Example 218, 4-[4-(1,3-benzodioxol-5-yl)-6-(cyclopropylethynyl)-1H-pyrrolo[2,3-b]pyridin-3-yl]pyridine-2,6-diamine]: the IC50 worked out at 0.015 µM in test [1] and 0.0289 µM on phospho-Ser520-DYRK1A.

For the compound `Nc1cc(-c2c[nH]c3nc(C#CC4CC4)cc(-c4ccc5c(c4)OCO5)c23)ccn1` [Example 219, 4-[4-(1,3-benzodioxol-5-yl)-6-(cyclopropylethynyl)-1H-pyrrolo[2,3-b]pyridin-3-yl]pyridin-2-amine], the IC50 was 0.019 µM in test [1] and 0.0325 µM at phospho-Ser520-DYRK1A.

On to `C#Cc1cc(-c2ccc3c(c2)OCO3)c2c(-c3ccnc(N)c3)c[nH]c2n1` [Example 220, 4-[4-(1,3-benzodioxol-5-yl)-6-ethynyl-1H-pyrrolo[2,3-b]pyridin-3-yl]pyridin-2-amine], for which the IC50 in test [1] was determined as 0.034 µM; at phospho-Ser520-DYRK1A, 0.193 µM.

In the case of `C#Cc1cc(-c2ccc3c(c2)OCO3)c2c(-c3cc(N)nc(N)c3)c[nH]c2n1` [Example 221, 4-[4-(1,3-benzodioxol-5-yl)-6-ethynyl-1H-pyrrolo[2,3-b]pyridin-3-yl]pyridine-2,6-diamine], the results for the IC50 (in test [1]; at phospho-Ser520-DYRK1A) were 0.016 µM and 0.132 µM, respectively.

Take `Cc1cc(-c2ccc3c(c2)OCO3)c2c(-c3ccnc(N)c3)c[nH]c2n1` [Example 222, 4-[4-(1,3-benzodioxol-5-yl)-6-methyl-1H-pyrrolo[2,3-b]pyridin-3-yl]pyridin-2-amine]: the results for the half-maximal inhibitory concentration (IC50) (in test [1]; at phospho-Ser520-DYRK1A) were 0.008 µM and 0.0442 µM, respectively.

Turning to `N#Cc1cc(-c2ccc3c(c2)OCO3)c2c(-c3cc(N)nc(N)c3)c[nH]c2n1` [Example 224, 4-(1,3-benzodioxol-5-yl)-3-(2,6-diaminopyridin-4-yl)-1H-pyrrolo[2,3-b]pyridine-6-carbonitrile], the IC50 in test [1] was 0.03 µM; at phospho-Ser520-DYRK1A, 0.225 µM.
